System: hResistin
Test: Ability to inhibit TNF-α secretion by hResistin (THP-1, ELISA)
Type: cell-based
Conditions: THP-1 human monocyte cell line; for IC50: human recombinant Resistin, ELISA OD450 nm, 1 hour treatment
Protocol: Using THP-1 (human monocyte) cell line and ELISA system, the abilities to inhibit TNF-α secretion by hResistin (IC50) were evaluated for the compounds prepared in the above examples. The compounds target hResistin, and the abilities of the compounds to inhibit TNF-α secretion by human recombinant Resistin in human monocyte (THP-1) were evaluated. The abilities to inhibit TNF-α secretion were assessed by ELISA quantifying the amount of antibody with the enzyme as a marker using an antigen-antibody reaction.
Specifically, the cultured cells were spun down at 1,500 rpm for 2 minutes, the supernatant was removed and then the cells were re-suspended in 10 mL of complete RPMI-1640 medium. After counting the number of cells using Luna™ Automated Cell Counter, cells were plated into 96-well assay plates at 50 μL per well. The cells cultured for 24 hours were treated with the test substances in accordance with the concentration for 1 hour, and then the supernatant was collected and subjected to ELISA assay. In the ELISA assay, the absorbance at 450 nm (OD450 nm) was measured using Flexstation 3. The ability of each test substance to inhibit TNF-α secretion (IC50) and its inhibition at a concentration of 5 uM are shown in Table 1 below.

| Compound | IC50 [nM] | inhibition at 5 µM (TNF-α secretion by hResistin, concentration 5 uM) [%] |
| --- | --- | --- |
| CN1CCN(C(c2ccc(Cl)cc2)c2c(-c3ccccc3)[nH]c3ccccc23)CC1 (stereo not drawn) [Example 2, 3-((4-chlorophenyl)(4-methylpiperazin-1-yl)methyl)-2-phenyl-1H-indole] | 4400 | 70.3 |
| CN1CCN(C(c2ccccc2)c2c(-c3ccccc3)[nH]c3ccccc23)CC1 (stereo not drawn) [Example 6, 3-((4-methylpiperazin-1-yl)(phenyl)methyl)-2-phenyl-1H-indole] | 2800 |  |
| CN1CCN(C(c2cccc(F)c2)c2c(-c3ccccc3)[nH]c3ccccc23)CC1 (stereo not drawn) [Example 7, 3-((3-fluorophenyl)(4-methylpiperazin-1-yl)methyl)-2-phenyl-1H-indole] | 2000 |  |
| CN1CCN(C(c2ccc(C(F)(F)F)cc2)c2c(-c3ccccc3)[nH]c3ccccc23)CC1 (stereo not drawn) [Example 8, 3-((4-methylpiperazin-1-yl)(4-(trifluoromethyl)phenyl)methyl)-2-phenyl-1H-indole] | 1000 |  |
| Fc1ccc(C(c2c(-c3ccccc3)[nH]c3ccccc23)N2CCOCC2)cc1 (stereo not drawn) [Example 9, 4-((4-fluorophenyl)(2-phenyl-1H-indol-3-yl)methyl)morpholine] | 3500 |  |

Now from value to compound, other results behind:

| IC50 [nM] | Compound | inhibition at 5 µM (TNF-α secretion by hResistin, concentration 5 uM) [%] |
| --- | --- | --- |
| 1700 | CN1CCN(C(c2ccc(F)cc2)c2c(-c3ccccc3)[nH]c3ccccc23)CC1 (stereo not drawn) [Example 10, 3-((4-fluorophenyl)(4-methylpiperazin-1-yl)methyl)-2-phenyl-1H-indole] |  |
| 400 | CN1CCN(C(c2ccc(Cl)cc2)c2c(-c3ccc(Cl)cc3)[nH]c3ccccc23)CC1 (stereo not drawn) [Example 12, 2-(4-chlorophenyl)-3-((4-chlorophenyl)(4-methylpiperazin-1-yl)methyl)-1H-indole] |  |
| 3200 | CN1CCN(C(c2cccc(F)c2)c2c(-c3ccc(Cl)cc3)[nH]c3ccccc23)CC1 (stereo not drawn) [Example 14, 2-(4-chlorophenyl)-3-((3-fluorophenyl)(4-methylpiperazin-1-yl)methyl)-1H-indole] |  |
| 1500 | CN1CCN(C(c2ccc(F)cc2)c2c(-c3ccc(Cl)cc3)[nH]c3ccccc23)CC1 (stereo not drawn) [Example 15, 2-(4-chlorophenyl)-3-((4-fluorophenyl)(4-methylpiperazin-1-yl)methyl)-1H-indole] |  |
| 1700 | CCN1CCN(C(c2ccc(F)cc2)c2c(-c3ccccc3)[nH]c3ccccc23)CC1 (stereo not drawn) [Example 18, 3-((4-ethylpiperazin-1-yl)(4-fluorophenyl)methyl)-2-phenyl-1H-indole] |  |
| 1700 | CCN1CCN(C(c2ccc(C(F)(F)F)cc2)c2c(-c3ccccc3)[nH]c3ccccc23)CC1 (stereo not drawn) [Example 19, 3-((4-ethylpiperazin-1-yl)(4-(trifluoromethyl)phenyl)methyl)-2-phenyl-1H-indole] |  |

— US10597362B2, “3-aminoalkylated indole derivative, method for the preparation thereof, and pharmaceutical composition comprising the same” (Seoul National University Hospital, priority 2016, dated 2020)
